The record followed here is patent publication US7439418B2, “Anti-microbial peptide known as halocyntin, gene coding for said peptide, vector, transformed organism and composition containing said peptide” (Centre National de la Recherche Scientifique - CNRS, priority 2003, dated 2008).

Type in all cases: cell-based
The subject of one data set is N. gonorrhoeae. Put plainly: Minimal bactericidal concentration (MBC). To be noted: Mueller Hinton, 18 hours of incubation. Here is the method: (§1) The minimal bactericidal concentration (MBC) for each bacterial strain tested was determined as follows: The peptide was placed in a solution containing 0.01% acetic acid and 0.2% bovine serum albumin (BSA), then, serial dilutions of 2 in 2 are realized in the same 0.01% solution of acetic acid and 0.2% BSA. 10 μl of each dilution are incubated in sterile 96-well plates (Becton Dickinson, USA, ref: 18572) in the presence of 100 μl of a bacterial suspension brought to an optical density of 0.001 at 600 nm in the Mueller Hinton environment (MHB, SIGMA, ref: M-9677).
(§2) The bacterial growth is monitored after 18 hours of incubation under agitation. The MBC is determined by spreading out the content of the first three wells in which no bacterial growth was observed. This spreading out was carried out on Petri dishes on which an agar was poured prepared from the Mueller Hinton environment. These dishes were then incubated 18 hours. The MBC corresponds to the lowest concentration of peptide for which no bacterial colony was observed on the incubated dishes.

The next data set relates to B. megaterium. Put plainly: Minimal bactericidal concentration (MBC). To be noted: Mueller Hinton, 18 hours of incubation. On the procedure: as §1, §2
Another data set deals with A. viridans. Put plainly: Minimal bactericidal concentration (MBC). To be noted: Mueller Hinton, 18 hours of incubation. On the procedure:
as §1, §2

The test system of a further data set is P. aeruginosa. Put plainly: Minimal bactericidal concentration (MBC). To be noted: Mueller Hinton, 18 hours of incubation. On the procedure:
as §1, §2

The next data set deals with E. faecalis. Put plainly: Minimal bactericidal concentration (MBC). To be noted: Mueller Hinton, 18 hours of incubation. Here is the method: as §1, §2
In a further data set the test system is M. luteus. Put plainly: Minimal bactericidal concentration (MBC). To be noted: Mueller Hinton, 18 hours of incubation. On the procedure:
as §1, §2

The subject of another data set is E. aerogenes. Put plainly: Minimal bactericidal concentration (MBC). As to conditions: Mueller Hinton, 18 hours of incubation. Here is the method: as §1, §2
A further data set relates to S. aureus. Put plainly: Minimal bactericidal concentration (MBC). To be noted: Mueller Hinton, 18 hours of incubation. On the procedure:
as §1, §2

For the next data set, the system named is E. coli DH5α. Put plainly: Minimal bactericidal concentration (MBC). As to conditions: Mueller Hinton, 18 hours of incubation. Here is the method: as §1, §2
A further data set concerns S. typhimutium. Put plainly: Minimal bactericidal concentration (MBC). To be noted: Mueller Hinton, 18 hours of incubation. On the procedure:
as §1, §2

In a further data set the test system is K. pneumoniae. Put plainly: Minimal bactericidal concentration (MBC). As to conditions: Mueller Hinton, 18 hours of incubation. Here is the method: as §1, §2
The subject of a further data set is sheep erythrocytes. Put plainly: Hemolytic activity on sheep erythrocytes. On the procedure: A known quantity of peptide was placed in a solution containing […] acetic acid and 0.2% bovine serum albumin (BSA) in such a manner as to obtain a stock solution with a concentration of […]; then, serial dilutions of this solution were realized in the same solution of 0.01% acetic acid and 0.2% BSA (AA-BSA). […] of each of these solutions or […] of a 10% Triton X-100 solution in PBS (control—peptide) were then added to 180 μl of a solution containing 2.5% (volume/volume) of the suspension of sheep erythrocytes in PBS. The mixture was then incubated 30 minutes at 37° C. then submitted to a centrifugation that 10000 g for 3 minutes. Finally, the supernatant was recovered and its absorbance measured at 600 nm. The percentage of hemolysis is then calculated with the following equation: % hemolysis=(A600 of the sample−A600 of control-peptide)/(A600 control 100% hemolysis−A600 control-peptide)×100.

Where no end group is shown, it is not given here.

Take FWGHIWNAVKRVGANALHGAVTGALS [halocyntin]: the MBC was 25 to 50 µM with N. gonorrhoeae; 0.75 to 1.56 µM with B. megaterium; 3.13 to 6.25 µM against A. viridans; over 100 µM against P. aeruginosa; 6.25 to 12.5 µM in the data set on E. faecalis; 1.56 to 3.13 µM in the data set with M. luteus. Also, the MBC against E. aerogenes lay within 25 to 50 µM; against S. aureus it was 6.25 to 12.5 µM; against E. coli DH5α, 6.25 to 12.5 µM; in the data set on S. typhimutium, 50 to 100 µM; in the data set on K. pneumoniae, 12.5 to 25 µM. Moreover, the hemolytic activity result in the data set on sheep erythrocytes (beyond 12.5 mM) is listed as “very faint hemolytic activity”; in the data set with sheep erythrocytes (concentration of 50 μM, 30 minutes at 37° C.) it was 5.8%; in the data set on sheep erythrocytes (up to concentrations of 12.5 mM), “does not show any hemolytic activity”.
